Results on 16 compounds are retold here after paper PMC8780434 (Viruses, 2022).

“And” between values parts separate entries of the source, which are not always exact repeats. Equal values may be shown once. Read-outs that look alike come from different tables or passages of the source. Where only a bound is given, the exact number is not on record here.

Series [1] deals with EV71. Put plainly: FRET-based biosensor drug screening (HeLa-G2AwtR cells) for EV71 inhibitors. It is filed as cell-based, EV71 (strain BrCr). The settings on record: Enterovirus A, read-out: inhibition rate.
Series [2] has as its system EV71. Put plainly: Western blot of viral VP1 in EV71-infected RD cells. Particulars: for VP1/Tubulin (%): EV71 MOI 1, 6 h, DMSO = 100; for antiviral activity against EV71 infections, rank among SSRIs: 5 or 10 μM, Western blot.
The nature of series [3]: Cell viability assay (CellTiter 96 AQueous) in RD cells. Particulars: human.
Series [4] is described as follows: Secondary screening cell cytotoxicity. The settings on record: at 10 μM, secondary screening criterion.
Series [5] in a line: Cell viability assay (CellTiter 96 AQueous) in HeLa cells. The settings on record: human.
Series [6] deals with EV71. Put plainly: Immunofluorescence assay (IFA) of anti-EV71 potency. It is filed as cell-based, EV71 (strain BrCr). The settings on record: Enterovirus A, EV71 MOI 0.1, 12 h p.i.
A short description of series [7]: in vitro. Particulars: human.
For series [8] the following is noted: human, 12 h, 10 μM.
Series [9] can be described thus: in vitro. Particulars: human. The source holds these as a separate data set.
Series [10] deals with EV71. Particulars: active in the range of several mM; cited from earlier work.
Details of series [11]: method as in earlier work. Particulars: cited from earlier work.
In series [12] the test system is EV71. The series can be described thus: Virus binding assay (RT-qPCR). Particulars: RD cells, 5 or 10 μM, 0 °C 1 h, MOI 5.
The subject of series [13] is EV71. The series can be described thus: Virus internalization assay (RT-qPCR). Particulars: RD cells, 5 or 10 μM, 37 °C 1 h after binding, trypsinized, MOI 5.
Series [14] has as its system EV71. Put plainly: Time-of-addition assay (RT-qPCR of viral RNA). In kind it is cell-based, EV71 (strain BrCr). Particulars: RD cells, 10 μM, MOI 0.1, RT-qPCR.
Series [15] deals with EV71. Put plainly: Low-pH exposure assay (Western blot and plaque assay). It is filed as cell-based, EV71 (strain BrCr). Particulars: 10 μM; for times more viral titer than the sertraline-treated pH 7.4 control: 12 h.
Where [16] appears, read: 5 μM drug, HeLa-G2AwtR cells, EV71 MOI 1, 12 h.

For the compound `COc1cccc2c1C(=O)c1c(O)c3c(c(O)c1C2=O)C[C@@](O)(C(=O)CO)C[C@@H]3O[C@H]1C[C@H](N)[C@H](O)[C@H](C)O1` [doxorubicin], the inhibition at 5 µM in the series with EV71 [1] (setting [16]) was more than 50%.

Turning to `O=C1c2c(O)ccc(O)c2C(=O)c2c(NCCNCCO)ccc(NCCNCCO)c21` [mitoxantrone], the inhibition at 5 µM in the series with EV71 [1] (setting [16]) was more than 50%.

For the compound `CCN(CC)CCCC(C)Nc1ccnc2cc(Cl)ccc12` (stereo not shown) [CQ, chloroquine], the “VP1/Tubulin (%)” value in the series with EV71 [2] (5 μM) turned out to be 52%; in the series with EV71 [2] (10 μM), 15%.

With `Nc1ccn([C@@H]2O[C@H](CO)[C@@H](O)C2(F)F)c(=O)n1` [gemcitabine], the inhibition at 5 µM in the series with EV71 [1] (setting [16]) was more than 50%.

Consider `COc1cccc2c1C(=O)c1c(O)c3c(c(O)c1C2=O)C[C@@](O)(C(=O)CO)C[C@@H]3O[C@H]1C[C@H](N)[C@@H](O)[C@H](C)O1` [epirubicin], for which the inhibition at 5 µM in the series with EV71 [1] (setting [16]) was more than 50%.

`COCCCC/C(=N\OCCN)c1ccc(C(F)(F)F)cc1` [FLX, fluvoxamine]: the entries for the “VP1/Tubulin (%)” value in the series on EV71 [2] (5 μM) and with EV71 [2] (10 μM) were 82% and 77%, respectively. Further, in the series with EV71 [2], the “antiviral activity against EV71 infections, rank among SSRIs” value is “weakest antiviral activity”.

For `CCCCCCCCc1ccc(CCC(N)(CO)CO)cc1` [Fingolimod], the CC50 at 12 h came out at 24.5 µM in series [3] and 21.8 µM in series [5]. The same compound registered a cell cytotoxicity in series [4] of less than 20%. In addition, the figures for the IC50 in the series on EV71 [6] (HeLa cells) and with EV71 [6] (RD cells) were 2.94 µM and 3.59 µM, respectively.

For the compound `CN(C)CCCN1c2ccccc2Sc2ccc(Cl)cc21` [CPZ, chlorpromazine], the “VP1/Tubulin (%)” value came out at 109% in the series on EV71 [2] (5 μM) and 54% with EV71 [2] (10 μM).

`CC(=O)[C@]1(O)Cc2c(O)c3c(c(O)c2[C@@H](O[C@H]2C[C@H](N)[C@H](O)[C@H](C)O2)C1)C(=O)c1ccccc1C3=O` [idarubicin]: the inhibition at 5 µM with EV71 [1] (setting [16]) is more than 50%.

With `OC(c1cc(C(F)(F)F)nc2c(C(F)(F)F)cccc12)C1CCCCN1` (stereo not shown) [Mefloquine], the CC50 at 12 h stood at 29.8 µM in the series “in vitro [7]” and 30 µM in “in vitro [9]”. In addition, in series [8], the cell cytotoxicity is less than 20%. Moreover, the half-inhibitory concentration (IC50) with EV71 [6] (HeLa cells) is 3.25 µM; in the series with EV71 [6] (RD cells), 3.89 µM.

In series [4], `Oc1c(Cl)cc(Cl)c(Cl)c1Cc1c(O)c(Cl)cc(Cl)c1Cl` [Hexachorophene, Hexachlorophene] came in with a cell cytotoxicity of less than 20%.

Turning to `Cl.N` [NH4Cl], the “antiviral effect compared with sertraline and chloroquine” value in the series with EV71 [10] is listed as “much weaker antiviral effect”.

Regarding `OC(CNCC(O)C1CCc2cc(F)ccc2O1)C1CCc2cc(F)ccc2O1` (stereo not shown) [Nebivolol], the CC50 at 12 h in “in vitro [7]” was 32.7 µM; in the series “in vitro [9]” it was 32.9 µM. This compound also had a cell cytotoxicity in series [8] of less than 20%. In addition, the IC50 in the series with EV71 [6] (HeLa cells) turned out to be 4.17 µM; in the series on EV71 [6] (RD cells), 4.74 µM.

For `COc1cccc2c1C(=O)c1c(O)c3c(c(O)c1C2=O)C[C@@](O)(C(C)=O)C[C@@H]3O[C@H]1C[C@H](N)[C@H](O)[C@H](C)O1` [daunorubicin], the inhibition at 5 µM with EV71 [1] (EV71, 12 h) is more than 50%.

As to `CN[C@H]1CC[C@@H](c2ccc(Cl)c(Cl)c2)c2ccccc21` [Sertraline], the “maximum concentration in human plasma” value in [11] was “approximately 200 ng/mL and ~ 654 nM”. The “viral RNA levels, virus binding, versus drug-free control” value with EV71 [12] is “undetectable difference”. The “VP1/Tubulin (%)” value came to 58% in the series with EV71 [2] (5 μM) and 10% in the series with EV71 [2] (10 μM). Besides, the “antiviral activity against EV71 infections, rank among SSRIs” value in the series on EV71 [2] is on record as “strongest inhibitory effect”. Besides, the “viral RNA levels, virus internalization, versus drug-free control” value in the series on EV71 [13] is reported as “undetectable difference”. In [8], this compound gave a cell cytotoxicity of less than 20%. Further, the “viral RNA levels, post-entry step” value with EV71 [14] (drug present 2-12 h) is listed as “negligible effect”. In the series with EV71 [14] (drug present -2 to 2 h), the “viral RNA levels, entry step” value is recorded as “profound reduction”. The “times more viral titer than the sertraline-treated pH 7.4 control” value in the series on EV71 [15] (HeLa cells, pH 5 medium 10 min) amounted to 13.4 times; in the series on EV71 [15] (HeLa cells, pH 5.5 medium 10 min), 4 times; in the series with EV71 [15] (RD cells, pH 5 medium 10 min) it was 16 times; in the series on EV71 [15] (RD cells, pH 5.5 medium 10 min), 5.7 times. Moreover, in the series on EV71 [15] (RD and HeLa cells, pH 5.5 and 5, 6 h p.i., Western blot), the “viral replication at the levels of viral protein after low-pH shocks” value is given as “markedly rescued”.

Regarding `Fc1ccc([C@@H]2CCNC[C@H]2COc2ccc3c(c2)OCO3)cc1` [PAR, paroxetine], the “VP1/Tubulin (%)” value came out at 74% in the series on EV71 [2] (5 μM) and 48% in the series on EV71 [2] (10 μM).
